For the experiment, the system named is HCT116 MTAP-deleted cell lines. Briefly: Cell viability assay (CellTiter-Glo, 7 days), HCT116 MTAP-deleted. In kind it is cell-based. To be noted: Homo sapiens, HCT-116; cell viability assay, HCT116 MTAP-deleted; class symbols; read-out: CC50. The method in brief: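 Each PRMT5 inhibitor was tested as a dose response alongside tool compounds on the same plate. Incubation ran 7 days at 37 °C under 5% CO2, after which CellTiter-Glo luminescence was recorded and CC50 calculated.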
(Cellular ATP, detected with luciferase, serves as a proxy for viable cell number.)

Each structure is given as a SMILES string. Bounds are passed on as bounds.

For orientation: CC50 means the concentration giving 50% cytotoxicity. As to `CCN(C(=O)c1cc2c(cc1F)nc(N)c1cncn12)[C@H](C)c1ccc(C(F)(F)F)cn1` [Ff-542, (R)-4-amino-N-ethyl-7-fluoro-N-(1-(5-(trifluoromethyl)pyridin-2-yl)ethyl)imidazo[1,5-a]quinoxaline-8-carboxamide], the CC50 was under 0.1 µM. With `CCN(C(=O)c1cc2c(cc1F)nc(N)c1cncn12)[C@@H](C)c1ccc(C(F)(F)F)cn1` [Ff-543, (S)-4-amino-N-ethyl-7-fluoro-N-(1-(5-(trifluoromethyl)pyridin-2-yl)ethyl)imidazo[1,5-a]quinoxaline-8-carboxamide], the CC50 is under 0.1 µM.

With `CN(C(=O)c1cc2c(cc1F)nc(N)c1cncn12)[C@@H]1COc2cc(C3CC3)ccc21` [Ff-546, (S)-4-amino-N-(6-cyclopropyl-2,3-dihydrobenzofuran-3-yl)-7-fluoro-N-methylimidazo[1,5-a]quinoxaline-8-carboxamide], the CC50 is under 0.1 µM. The same measure for `CN(Cc1nc(-c2cnn(C(F)(F)F)c2)cs1)C(=O)c1cc2c(cc1F)nc(N)c1cncn12` [Ff-550, 4-amino-7-fluoro-N-methyl-N-((4-(1-(trifluoromethyl)-1H-pyrazol-4-yl)thiazol-2-yl)methyl)imidazo[1,5-a]quinoxaline-8-carboxamide]: 0.1 to 1 µM.

Turning to `CN(Cc1ccc(-c2cnn(C(F)F)c2)cc1Cl)C(=O)c1cc2c(cc1F)nc(N)c1cncn12` [Ff-551, 4-amino-N-(2-chloro-4-(1-(difluoromethyl)-1H-pyrazol-4-yl)benzyl)-7-fluoro-N-methylimidazo[1,5-a]quinoxaline-8-carboxamide], the 50% cytotoxic concentration (CC50) fell in the range of 0.1 to 1 µM.

`CN(Cc1ccc(-c2cnn(C(F)(F)F)c2)cc1Cl)C(=O)c1cc2c(cc1F)nc(N)c1cncn12` [Ff-552, 4-amino-N-(2-chloro-4-(1-(trifluoromethyl)-1H-pyrazol-4-yl)benzyl)-7-fluoro-N-methylimidazo[1,5-a]quinoxaline-8-carboxamide]: the CC50 was in the range of 0.1 to 1 µM. Next, `COc1cc(-c2cnn(C(F)F)c2)ccc1CN(C)C(=O)c1cc2c(cc1F)nc(N)c1cncn12` [Ff-553, 4-amino-N-(4-(1-(difluoromethyl)-1H-pyrazol-4-yl)-2-methoxybenzyl)-7-fluoro-N-methylimidazo[1,5-a]quinoxaline-8-carboxamide]: 0.1 to 1 µM; `COc1cc(-c2cnn(C(F)(F)F)c2)ccc1CN(C)C(=O)c1cc2c(cc1F)nc(N)c1cncn12` [Ff-554, 4-amino-N-(4-(1-(trifluoromethyl)-1H-pyrazol-4-yl)-2-methoxybenzyl)-7-fluoro-N-methylimidazo[1,5-a]quinoxaline-8-carboxamide]: 0.1 to 1 µM; `CN(C(=O)c1cc2c(cc1F)nc(N)c1cncn12)C1COc2cc(Br)c(F)cc21` (stereo not shown) [Ff-560, 4-amino-N-(6-bromo-5-fluoro-2,3-dihydrobenzofuran-3-yl)-7-fluoro-N-methylimidazo[1,5-a]quinoxaline-8-carboxamide]: under 0.1 µM. Next, `CN(C(=O)c1cc2c(cc1C#N)nc(N)c1cncn12)[C@@H]1COc2cc(OC(F)(F)F)ccc21` [Ff-561, (S)-4-amino-7-cyano-N-methyl-N-(6-(trifluoromethoxy)-2,3-dihydrobenzofuran-3-yl)imidazo[1,5-a]quinoxaline-8-carboxamide]: under 0.1 µM.

Turning to `CN(C(=O)c1cc2c(cc1Cl)nc(N)c1cncn12)[C@@H]1COc2cc(OC(F)(F)F)ccc21` [Ff-562, (S)-4-amino-7-chloro-N-methyl-N-(6-(trifluoromethoxy)-2,3-dihydrobenzofuran-3-yl)imidazo[1,5-a]quinoxaline-8-carboxamide], the CC50 was under 0.1 µM. Next, `CN(C(=O)c1ccc2nc(N)c3cncn3c2c1)[C@@H]1COc2cc(OC(F)(F)F)ccc21` [Ff-563, (S)-4-amino-N-methyl-N-(6-(trifluoromethoxy)-2,3-dihydrobenzofuran-3-yl)imidazo[1,5-a]quinoxaline-8-carboxamide]: under 0.1 µM. Next, `Cc1ncc2c(N)nc3cc(F)c(C(=O)N(C)[C@@H]4COc5cc(OC(F)(F)F)ccc54)cc3n12` [Ff-564, (S)-4-amino-7-fluoro-N,1-dimethyl-N-(6-(trifluoromethoxy)-2,3-dihydrobenzofuran-3-yl)imidazo[1,5-a]quinoxaline-8-carboxamide]: under 0.1 µM.

Consider `CN(C(=O)c1cc2c(cn1)nc(N)c1cncn12)[C@@H]1COc2cc(OC(F)(F)F)ccc21` [Ff-565, (S)-4-amino-N-methyl-N-(6-(trifluoromethoxy)-2,3-dihydrobenzofuran-3-yl)imidazo[1,5-a]pyrido[3,4-e]pyrazine-8-carboxamide], for which the CC50 was in the range of 0.1 to 1 µM. Next, `CN(C(=O)c1ccc2nc(N)c3cncn3c2c1)[C@@H]1COc2cc(F)ccc21` [Ff-569, (S)-4-amino-N-(6-fluoro-2,3-dihydrobenzofuran-3-yl)-N-methylimidazo[1,5-a]quinoxaline-8-carboxamide]: 0.1 to 1 µM; `CN(C(=O)c1ccc2nc(N)c3cncn3c2c1)[C@@H](c1ccc(C(F)(F)F)cc1Cl)C(F)F` [Ff-570, (S)-4-amino-N-(1-(2-chloro-4-(trifluoromethyl)phenyl)-2,2-difluoroethyl)-N-methylimidazo[1,5-a]quinoxaline-8-carboxamide]: 0.1 to 1 µM; `CN(C(=O)c1cc2c(cn1)nc(N)c1cncn12)[C@@H](c1ccc(C(F)(F)F)cc1Cl)C(F)F` [Ff-571, (S)-4-amino-N-(1-(2-chloro-4-(trifluoromethyl)phenyl)-2,2-difluoroethyl)-N-methylimidazo[1,5-a]pyrido[3,4-e]pyrazine-8-carboxamide]: 0.1 to 1 µM.

For `CN(C(=O)c1cc2c(cc1F)nc(N)c1cncn12)[C@@H]1COc2cc(C3CC(F)(F)C3)ccc21` [Ff-572, (S)-4-amino-N-(6-(3,3-difluorocyclobutyl)-2,3-dihydrobenzofuran-3-yl)-7-fluoro-N-methylimidazo[1,5-a]quinoxaline-8-carboxamide], the CC50 was under 0.1 µM. The same measure for `CN(C(=O)c1cc2c(cc1F)nc(N)c1cncn12)[C@@H]1COc2cc(C3COC3)ccc21` [Ff-573, (S)-4-amino-7-fluoro-N-methyl-N-(6-(oxetan-3-yl)-2,3-dihydrobenzofuran-3-yl)imidazo[1,5-a]quinoxaline-8-carboxamide]: 0.1 to 1 µM; for `CN(C(=O)c1cc2c(cc1F)nc(N)c1cncn12)[C@@H]1COc2cc(C3CC3(F)F)ccc21` (stereo partly drawn) [Ff-574, 4-amino-N-((3S)-6-(2,2-difluorocyclopropyl)-2,3-dihydrobenzofuran-3-yl)-7-fluoro-N-methylimidazo[1,5-a]quinoxaline-8-carboxamide]: under 0.1 µM. Next, `CN(C(=O)c1cc2c(cc1F)nc(N)c1cncn12)[C@@H]1COc2cc(C3(C)CC3(F)F)ccc21` (stereo partly drawn) [Ff-575, 4-amino-N-((3S)-6-(2,2-difluoro-1-methylcyclopropyl)-2,3-dihydrobenzofuran-3-yl)-7-fluoro-N-methylimidazo[1,5-a]quinoxaline-8-carboxamide]: under 0.1 µM; `CN(C(=O)c1cc2c(cc1F)nc(N)c1cncn12)[C@@H]1COc2cc(C(F)F)ccc21` [Ff-576, (S)-4-amino-N-(6-(difluoromethyl)-2,3-dihydrobenzofuran-3-yl)-7-fluoro-N-methylimidazo[1,5-a]quinoxaline-8-carboxamide]: 0.1 to 1 µM.

With `CN(C(=O)c1cc2c(cc1F)nc(N)c1cncn12)C(c1ccc(C(F)(F)F)cn1)C(F)F` (stereo not shown) [Ff-577, 4-amino-N-(2,2-difluoro-1-(5-(trifluoromethyl)pyridin-2-yl)ethyl)-7-fluoro-N-methylimidazo[1,5-a]quinoxaline-8-carboxamide], the CC50 fell in the range of 0.1 to 1 µM. For `C[C@H]1CN(C(=O)c2cc3c(cc2F)nc(N)c2cncn23)[C@H]2c3ccc(C#N)cc3C[C@H]2O1` [Ff-578, (2S,4aS,9aR)-4-(4-amino-7-fluoroimidazo[1,5-a]quinoxaline-8-carbonyl)-2-methyl-2,3,4,4a,9,9a-hexahydroindeno[2,1-b][1,4]oxazine-7-carbonitrile], the CC50 is under 0.1 µM. As to `CO[C@@H]1Cc2cc(Br)ccc2[C@@H]1N(C)C(=O)c1cc2c(cc1F)nc(N)c1cncn12` [Ff-579, 4-amino-N-((1S,2R)-5-bromo-2-methoxy-2,3-dihydro-1H-inden-1-yl)-7-fluoro-N-methylimidazo[1,5-a]quinoxaline-8-carboxamide], the CC50 was under 0.1 µM. Next, `CO[C@@H]1Cc2cc(-c3cnn(C(F)F)c3)ccc2[C@@H]1N(C)C(=O)c1cc2c(cc1F)nc(N)c1cncn12` [Ff-580, 4-amino-N-((1S,2R)-5-(1-(difluoromethyl)-1H-pyrazol-4-yl)-2-methoxy-2,3-dihydro-1H-inden-1-yl)-7-fluoro-N-methylimidazo[1,5-a]quinoxaline-8-carboxamide]: 0.1 to 1 µM; `CO[C@@H]1Cc2cc(C(F)(F)F)ccc2[C@@H]1N(C)C(=O)c1cc2c(cc1F)nc(N)c1cncn12` [Ff-581, 4-amino-7-fluoro-N-((1S,2R)-2-methoxy-5-(trifluoromethyl)-2,3-dihydro-1H-inden-1-yl)-N-methylimidazo[1,5-a]quinoxaline-8-carboxamide]: 0.1 to 1 µM; `CN(C(=O)c1cc2c(cc1F)nc(N)c1cncn12)[C@H]1c2ccc(Br)cc2C[C@H]1OC(F)F` [Ff-582, 4-amino-N-((1S,2R)-5-bromo-2-(difluoromethoxy)-2,3-dihydro-1H-inden-1-yl)-7-fluoro-N-methylimidazo[1,5-a]quinoxaline-8-carboxamide]: 0.1 to 1 µM. The same measure for `CN(C(=O)c1cc2c(cc1F)nc(N)c1cncn12)[C@H]1c2ccc(-c3cnn(C(F)F)c3)cc2C[C@H]1OC(F)F` [Ff-583, 4-amino-N-((1S,2R)-2-(difluoromethoxy)-5-(1-(difluoromethyl)-1H-pyrazol-4-yl)-2,3-dihydro-1H-inden-1-yl)-7-fluoro-N-methylimidazo[1,5-a]quinoxaline-8-carboxamide]: 0.1 to 1 µM; for `CN(C(=O)c1cc2c(cc1F)nc(N)c1cncn12)[C@@H]1COc2cc(OC(F)F)c(F)cc21` [Ff-584]: under 0.1 µM; for `CN(C(=O)c1cc2c(cc1F)nc(N)c1cncn12)[C@@H]1COc2cc(OC(F)F)cc(F)c21` [Ff-585]: under 0.1 µM.

The values are drawn from patent US12448388B2, “PRMT5 inhibitors and uses thereof” (Gilead Sciences, Inc., priority 2023, dated 2025).
